# pIC50: −log10 of the molar value. Where “and” joins values, the source holds several entries; their conditions need not be identical. Equal values may be shown once. Read-outs that look alike come from different tables or passages of the source.
# Key:
# HDAC9 = molecular target: T1, HDAC9 (Homo sapiens, UniProt Q9UKV0); assay: HDAC enzyme assay, in vitro biochemical; details: maximum concentration tested of 20 μM
# T1 construct: purchased BPS Biosciences
# Procedure: (§1) In vitro biochemical assays were performed as described previously. Specifically, compounds were dissolved and diluted in assay buffer (50 mM HEPES, pH 7.4, 100 mM KCl, 0.001% Tween-20, 0.05% BSA, and 20 μM Tris (2-carboxyethyl) phosphine) to 6-fold the final concentration. […] The amount of substrate (acetyl-lysine tripeptide) used for each enzyme was equal to the Michaelis constant (Km), as determined by a titration curve. Substrate was diluted in assay buffer to 6-fold of the final concentration with 0.3 μM sequencing grade trypsin (Sigma-Aldrich). The substrate/trypsin mix was added to the enzyme/compound mix and the plate was shaken for 5 seconds and then placed into a SpectraMax M5 microtiter (Molecular Devices) plate reader. The enzymatic reaction was monitored over 30 minutes for release of […] after deacetylation of the lysine side chain in the peptide substrate, and the linear rate of the reaction was calculated.
# biochemical assay for HDAC4, HDAC5, HDAC6, HDAC7, HDAC8, HDAC9 inhibition by ACY-1035.
# (1 picture or pasted object on this page, not shown here)
# MV-4-11 and HL-60 cells [1] = assay: Flow cytometry, cell cycle (EdU, S phase); type: cell-based, human; details: single agent, 72 hours
# Procedure: (§2) All compounds and/or solvent DMSO were added concurrently at the indicated doses. Flow cytometry was performed to measure surface level of CD11b, cell cycle distribution, and induction of apoptosis. CD11b and apoptosis were analyzed on a FC500 flow cytometer ([…]) and cell cycle profiled on an Attune NxT (Life Technologies).
# EdU labeled cells were then mixed with FxCycle Far Red Stain (Life Technologies) and 100 μg RNase A cocktail (Life technologies) for 30 minutes before flow cytometry analysis. Edu positive populations representing S phase cells were quantified.
# MV-4-11 and HL-60 cells [2] = assay: Flow cytometry, apoptosis (Annexin V); type: cell-based, human; details: single agent, 96 hours
# Procedure: as §2
# Annexin V-positive populations were quantified.
# [3] = system: MV-4-11, Kasumi-1 and HL-60 cell lines; assay: Histone acetylation by immunoblotting; type: cell-based, human; details: 24 hours, increasing doses
# Description: The EpiQuick Total Histone Extraction kit (Epigentek) was used to isolate histones. Histone lysates were size separated on Bolt 10% Bis-Tris gradient gels (Life Technologies), transferred to polyvinylidene difluoride membranes, blocked in 5% BSA, and detected using standard western blotting techniques.
# MV-4-11 and HL-60 cells [4] = assay: Flow cytometry, surface level of CD11b (differentiation); type: cell-based, human; details: single agent, 72 hours
# Procedure: as §2
# The frequency of CD11b positive cells out of total viable cells identified by forward and side scatter profile was quantified.
# MOLM-13 cells = assay: Cell viability assay (CellTiter-Glo), single agent and combination; details: read-out: IC50 cell viability MOLM-13; 72 hours
# Procedure: (§3) MV-4-11, Kasumi-1, and HL-60 AML cell lines were all obtained from ATCC. MOLM-13 and NB-4 cell lines were obtained from DSMZ. […] The identity of each cell line was validated and documented by the suppliers. All experiments were performed with cells maintained at low passage numbers.
# (§4) Compounds and/or solvent dimethyl sulfoxide (DMSO) were added at the same time using an HP D300 digital dispenser (Hewlett Packard) in triplicate or quadruplicate and incubated for 72 hours at 37°C. Viability was measured by adding 25 μL CellTiter-Glo (Promega), incubating for 10 minutes, and measuring luminescence on a SpectraMax (Molecular Devices). […] CI < 1 indicates synergism, CI = 1 indicates additivity, and CI > 1 indicates antagonism.
# HDAC2 = molecular target: T2, HDAC2 (Homo sapiens, UniProt Q92769); assay: HDAC enzyme assay, in vitro biochemical
# T2 construct: purchased BPS Biosciences
# Procedure: as §1
# HDAC1 = molecular target: T3, HDAC1 (Homo sapiens, UniProt Q13547); assay: HDAC enzyme assay, in vitro biochemical
# T3 construct: purchased BPS Biosciences
# Procedure: as §1
# HDAC3 = molecular target: T4, HDAC3 (Homo sapiens, UniProt O15379); assay: HDAC enzyme assay, in vitro biochemical; details: pre-incubated 24 hours at 4°C; n = 3; read-out: IC50 against HDAC3
# T4 construct: purchased BPS Biosciences
# Procedure: as §1
# [5] = system: five human AML cell lines (MV-4-11, Kasumi-1, HL-60, MOLM-13, NB-4); assay: Cell viability assay, summary over five human AML cell lines; details: 72 hours
# Procedure: as §3, §4
# NB-4 cells = assay: Cell viability assay (CellTiter-Glo); details: read-out: IC50 cell viability NB-4; 72 hours
# Procedure: as §3
# Compounds and/or solvent dimethyl sulfoxide (DMSO) were added at the same time using an HP D300 digital dispenser (Hewlett Packard) in triplicate or quadruplicate and incubated for 72 hours at 37°C. Viability was measured by adding 25 μL CellTiter-Glo (Promega), incubating for 10 minutes, and measuring luminescence on a SpectraMax (Molecular Devices).
# MV-4-11 and HL-60 cells [6] = assay: Quantitative real time PCR (qPCR) of CDKN1A, CDKN1C, GATA2, HES1; type: cell-based, human; details: MV-4-11 and HL-60, 48 hours
# Procedure: RNA isolations were performed on a Qiacube (Qiagen) using the RNeasy Micro Kit (Qiagen) according to manufacturer’s protocol. RNA was converted to cDNA using the High Capacity RNA-to-cDNA Kit (Life Technologies) and qPCR performed using the Taqman Gene Expression Max Mix according to manufacturer’s protocol (Applied Bioscience). The following ThermoFisher taqman probes were used: GATA2 (Hs01060665_g1), GAPDH (Hs0275899_g1), ACTB (Hs00231119_m1), CDKN1A (Hs00355782_m1), CDKN1C (Hs00175938_m1), HES1 (Hs00172878_m1).
# HL-60 cells = assay: Cell viability assay (CellTiter-Glo); details: read-out: IC50 cell viability HL-60; 72 hours
# Procedure: as §3, §4
# Kasumi-1 cells = assay: Cell viability assay (CellTiter-Glo); details: read-out: IC50 cell viability Kasumi-1; 72 hours
# Procedure: as §3, §4
# MV-4-11 cells = assay: Cell viability assay (CellTiter-Glo), single agent and combination; details: read-out: IC50 cell viability MV-4-11; 72 hours
# Procedure: as §3, §4
# MOLM-13 xenograft = assay: In vivo model of AML: MOLM-13 xenograft, time to endpoint (TTE) and survival; details: Azacitidine 5.5 mg/kg, iv, bi-weekly; for Tumor volume: individual animal;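 for all read-outs here: female Crl:NU(NCr)-Foxn1^nu mice bearing subcutaneous flank MOLM-13 tumors, caliper-measured twice per week, volume as width^2 × length/2, endpoint reached at 2000 mm^3 tumor volume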
# T3 sequence (Q13547 whole entry): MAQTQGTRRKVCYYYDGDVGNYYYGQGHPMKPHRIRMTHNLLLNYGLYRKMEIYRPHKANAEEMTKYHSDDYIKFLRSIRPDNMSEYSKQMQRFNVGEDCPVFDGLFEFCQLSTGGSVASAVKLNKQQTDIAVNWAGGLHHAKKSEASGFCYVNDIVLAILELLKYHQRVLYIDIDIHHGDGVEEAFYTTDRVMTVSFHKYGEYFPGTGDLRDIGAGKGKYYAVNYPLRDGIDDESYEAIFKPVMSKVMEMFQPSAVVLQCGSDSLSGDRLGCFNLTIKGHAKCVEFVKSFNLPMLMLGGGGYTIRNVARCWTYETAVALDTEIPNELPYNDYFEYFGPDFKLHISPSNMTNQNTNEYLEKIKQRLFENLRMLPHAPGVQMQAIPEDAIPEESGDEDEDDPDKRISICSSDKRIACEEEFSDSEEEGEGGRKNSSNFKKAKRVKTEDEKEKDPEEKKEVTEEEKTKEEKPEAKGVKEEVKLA
# T2 sequence (Q92769 whole entry): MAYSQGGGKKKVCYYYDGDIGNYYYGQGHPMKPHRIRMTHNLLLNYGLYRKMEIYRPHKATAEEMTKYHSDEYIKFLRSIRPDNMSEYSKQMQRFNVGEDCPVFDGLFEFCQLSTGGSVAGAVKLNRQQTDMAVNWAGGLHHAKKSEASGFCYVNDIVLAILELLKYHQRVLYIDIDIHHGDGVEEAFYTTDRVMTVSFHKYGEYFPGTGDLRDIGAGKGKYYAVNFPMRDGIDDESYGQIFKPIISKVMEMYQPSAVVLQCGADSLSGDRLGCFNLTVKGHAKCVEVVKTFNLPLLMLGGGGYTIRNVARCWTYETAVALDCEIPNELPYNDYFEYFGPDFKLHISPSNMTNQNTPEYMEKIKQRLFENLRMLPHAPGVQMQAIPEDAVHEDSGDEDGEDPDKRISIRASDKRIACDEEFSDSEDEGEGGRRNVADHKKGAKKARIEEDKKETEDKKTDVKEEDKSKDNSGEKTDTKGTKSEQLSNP
# T1 sequence (Q9UKV0 whole entry): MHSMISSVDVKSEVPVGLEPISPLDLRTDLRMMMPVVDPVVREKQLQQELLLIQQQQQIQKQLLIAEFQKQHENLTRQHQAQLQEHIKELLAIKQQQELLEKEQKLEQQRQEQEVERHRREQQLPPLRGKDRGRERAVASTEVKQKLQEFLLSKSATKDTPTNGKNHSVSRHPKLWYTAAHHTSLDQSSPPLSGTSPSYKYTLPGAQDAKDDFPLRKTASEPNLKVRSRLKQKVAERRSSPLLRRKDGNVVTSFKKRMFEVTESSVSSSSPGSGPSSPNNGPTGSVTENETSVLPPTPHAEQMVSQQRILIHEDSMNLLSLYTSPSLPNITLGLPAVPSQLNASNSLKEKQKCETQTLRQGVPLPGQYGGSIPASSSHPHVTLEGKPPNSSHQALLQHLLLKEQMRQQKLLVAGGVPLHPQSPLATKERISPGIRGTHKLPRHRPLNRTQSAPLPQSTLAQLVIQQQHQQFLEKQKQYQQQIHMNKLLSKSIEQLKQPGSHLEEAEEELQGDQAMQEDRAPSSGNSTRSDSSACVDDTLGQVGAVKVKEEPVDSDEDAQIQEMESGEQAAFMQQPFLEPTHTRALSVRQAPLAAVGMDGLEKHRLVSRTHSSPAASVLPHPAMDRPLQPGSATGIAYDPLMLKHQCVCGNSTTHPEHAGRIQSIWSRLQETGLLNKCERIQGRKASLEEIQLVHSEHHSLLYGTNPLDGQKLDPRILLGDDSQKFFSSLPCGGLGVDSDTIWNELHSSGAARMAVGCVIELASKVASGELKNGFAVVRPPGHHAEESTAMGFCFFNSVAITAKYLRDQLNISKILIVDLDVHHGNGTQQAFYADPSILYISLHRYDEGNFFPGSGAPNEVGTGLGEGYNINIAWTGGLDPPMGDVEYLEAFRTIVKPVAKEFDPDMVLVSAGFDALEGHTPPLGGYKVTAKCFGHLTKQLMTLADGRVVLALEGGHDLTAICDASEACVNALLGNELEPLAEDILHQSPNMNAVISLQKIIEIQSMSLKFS
# T4 sequence (O15379 whole entry): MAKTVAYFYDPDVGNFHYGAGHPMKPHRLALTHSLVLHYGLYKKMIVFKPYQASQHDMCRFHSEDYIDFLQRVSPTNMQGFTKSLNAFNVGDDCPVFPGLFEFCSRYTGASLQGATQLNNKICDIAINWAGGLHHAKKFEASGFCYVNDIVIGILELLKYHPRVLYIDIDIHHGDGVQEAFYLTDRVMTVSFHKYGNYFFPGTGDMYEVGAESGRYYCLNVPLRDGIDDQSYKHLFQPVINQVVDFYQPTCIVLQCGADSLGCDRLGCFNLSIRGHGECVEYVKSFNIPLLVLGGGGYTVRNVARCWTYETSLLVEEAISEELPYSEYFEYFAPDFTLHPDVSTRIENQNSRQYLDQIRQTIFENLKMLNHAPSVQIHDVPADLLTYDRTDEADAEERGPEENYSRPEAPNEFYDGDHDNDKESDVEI
# T4 sequence (Q9Y618 395-489 partner limits assumed): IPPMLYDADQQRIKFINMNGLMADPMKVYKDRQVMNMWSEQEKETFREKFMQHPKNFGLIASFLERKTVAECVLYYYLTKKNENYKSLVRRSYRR
smiles,measurement,setting,value
Nc1ccc(-c2cccs2)cc1NC(=O)c1ccc2c(c1)cc(C1CC1)n2CCN1CCOCC1 [ACY-1035],inhibition of HDAC9,HDAC9,did not inhibit
same,cells in S phase,MV-4-11 and HL-60 cells [1],dose-dependent reduction of cells in S phase
same,"apoptosis, staining for annexin V",MV-4-11 and HL-60 cells [2],increased staining for annexin V
same,acetylation on histone H2B lysine 5 (H2BK5ac) and histone H3 lysine 56 (H3K56ac),[3],dose-dependent accumulation
same,"differentiation, surface expression of CD11b",MV-4-11 and HL-60 cells [4],dose-dependent induction of differentiation
same,pIC50,MOLM-13 cells,5.54
same,selectivity for HDAC2 over HDAC3,HDAC2,approximately 50 fold
same,pIC50,"HDAC2; pre-incubated 24 hours at 4°C, n = 3, read-out: IC50 against HDAC2",7.64
same,selectivity for HDAC1 over HDAC3,HDAC1,more than 150 fold
same,pIC50,"HDAC1; pre-incubated 24 hours at 4°C, n = 3, read-out: IC50 against HDAC1",8.03
same,pIC50,HDAC3,5.70
same,pIC50,"[5]; read-out: IC50 values cell viability, range, five human AML cell lines, both compounds",5.48 to 6.10
same,pIC50,"[5]; read-out: average IC50 value, viability of AML cells, average of five AML cell lines",5.59
same,pIC50,NB-4 cells,5.55
same,"expression of CDKN1A, CDKN1C, GATA2 and HES1 (qPCR)",MV-4-11 and HL-60 cells [6],up-regulated
same,pIC50,HL-60 cells,5.48
same,pIC50,Kasumi-1 cells,5.59
same,pIC50,MV-4-11 cells,5.85
Nc1ncn([C@@H]2O[C@H](CO)[C@@H](O)[C@H]2O)c(=O)n1 [azacitidine],TTE,MOLM-13 xenograft; TTE for individual animal,14.4 and 17 and 17.1 and 17.2 and 17.4 and 17.6 and 17.7
same,Tumor volume,MOLM-13 xenograft; day of study 1,108 mm3 and 126 mm3 and 144 mm3 and 172 mm3
same,Tumor volume,MOLM-13 xenograft; day of study 5,172 mm3 and 126 mm3 and 245 mm3 and 196 mm3 and 365 mm3 and 256 mm3
same,Tumor volume,MOLM-13 xenograft; day of study 8,500 mm3 and 365 mm3 and 405 mm3 and 700 mm3 and 288 mm3 and 650 mm3 and 726 mm3 and 550 mm3
same,Tumor volume,MOLM-13 xenograft; day of study 12,1470 mm3 and 936 mm3 and 1183 mm3 and 1862 mm3 and 787 mm3 and 1080 mm3 and 1008 mm3 and 1152 mm3 and 1666 mm3
same,Tumor volume,MOLM-13 xenograft; day of study 15,1913 mm3 and 1568 mm3 and 2025 mm3 and 2816 mm3 and 1268 mm3 and 1666 mm3 and 1764 mm3 and 3240 mm3
same,Tumor volume,MOLM-13 xenograft; day of study 19,2025 mm3 and 2432 mm3 and 2176 mm3 and 2138 mm3 and 2250 mm3
same,"expression of CDKN1A, CDKN1C, GATA2 and HES1 (qPCR)",MV-4-11 and HL-60 cells [6],up-regulated

# Source: publication PMC5218480 (PLoS ONE, 2017)
